Measured values reported in patent US12065442B2, “Tropomyosin receptor kinase (TRK) degradation compounds and methods of use” (Cullgen (Shanghai), Inc., priority 2018, dated 2024).
“Also recorded” adds a separate entry of the source. Like-named read-outs stand apart in the source and are kept apart here. Values belong to the compound of their own block, whether it stands above or below them.

Assays:
[1] = biological target: T1, TPM3-TRKA fusion protein (Homo sapiens, UniProt P04629+P06753+Q96SW2); assay: Immunoblotting of TPM3-TRKA fusion protein in KM12 cells; format: cell-based; parameters: The resulted chimeric proteins always retain the kinase domain of TRK proteins; TPM3 (N-terminal fusion partner, natural gene fusion); endogenous in cells; host or cells: KM12 colon cancer cells; settings: for TRKA protein levels: dose range (FIG. 8A)
Experimental: Specific exemplary bivalent compounds were characterized in KM12 cells. […] Cells were collected, lysed and subject to immunoblotting using an antibody specific to TRK proteins. GAPDH was included as the loading control. DMSO was used as the negative control.
KM12 cells were treated with DMSO or indicated compounds at 100 nM for 16 hours.
KM12 cells were treated with CPD-027, CPD-053, and CPD-060 at 100 nM for indicated incubation time. […]
(§1) KM12 or HEL cells were treated with a dose range of compound TR-123 or TR-123-negative. The latter lost binding to cereblon (CRBN) due to a chemical modification.
KM12 or HEL cells were treated with a single dose of compound TR-123 or combination with MG-132, Bortezomib, MLN4924 or Pomalidomide. […]
(§2) Cultured cells were washed with cold PBS once and lysed in cold RIPA buffer supplemented with protease inhibitors and phosphatase inhibitors (Beyotime Biotechnology). The solutions were then incubated at 4° C. for 30 minutes with gentle agitation to fully lyse cells. For tumor tissues, tumors were cut into small pieces, milled with cold RIPA buffer using a mechanical homogenizer and lysed for 1 hour at 4° C. Cell lysates were centrifuged at 13,000 rpm for 10 minutes at 4° C. and pellets were discarded. Total protein concentrations in the lysates were determined by BCA assays (Beyotime Biotechnology). Cell lysates were mixed with Laemmli loading buffer to 1× and heated at 99° C. for 5 min. Proteins were resolved on SDS-PAGE and visualized by chemiluminescence. Images were taken by a ChemiDoc MP Imaging system (Bio-Rad). Protein bands were quantitated using the software provided by Bio-Rad.

[2] = biological target: T2, wild type TRKA protein (Homo sapiens, UniProt P04629); assay: Immunoblotting of wild type TRKA protein in HEL cells; format: cell-based; settings: for TRKA protein levels: dose range (FIG. 8B)
T2 construct: immunoblot of wild type TRKA protein expressed by HEL cells; endogenous in cells; host or cells: HEL cells
Experimental: as §1
KM12 or HEL cells were treated with a single dose of compound TR-123 or combination with MG-132, Bortezomib, MLN4924 or Pomalidomide.
as §2

[3] = tested on: KM12 cells; assay: Cell viability assay (CellTiter-Glo) in KM12 cells; format: cell-based; settings: Homo sapiens, 72 h, KM12 cell viability, CellTiter-Glo, 3 days, read-out: IC50
[4] = biological target: T1, TPM3-TRKA fusion protein; assay: Immunoblotting of TPM3-TRKA in KM12 subcutaneous xenograft tumors; format: in vivo, Athymic nude mice; parameters: The resulted chimeric proteins always retain the kinase domain of TRK proteins; TPM3 (N-terminal fusion partner, natural gene fusion); from tissue; host or cells: KM12 subcutaneous xenograft tumors in athymic nude mice; settings: for TPM3-TRKA degradation in KM12 subcutaneous tumors: intraperitoneal or oral administration, eight hours after administration (FIG. 10)
Experimental: In addition to cultured cells, athymic nude mice bearing KM12 subcutaneous xenograft tumors at the right flank were intraperitoneally treated with 10, 20, or 50 mg/kg CPD-053, CPD-027, or CPD-060. Four hours after drug administration, animals were sacrificed for immunoblotting of TPM3-TPKA in homogenized xenograft tumor masses. The label “a” or “b” represents two different samples of the same xenograft tumor.
Athymic nude mice bearing KM12 subcutaneous xenograft tumors at the right flank were intraperitoneally treated with 10, 20, or 50 mg/kg CPD-053, CPD-027, or CPD-060, as indicated in FIG. 3. Four hours after drug administration, animals were sacrificed for immunoblotting of TPM3-TPKA in homogenized xenograft tumor chunks. The label “a” or “b” represents two different chunks of the same xenograft tumor.
Athymic nude mice bearing KM12 subcutaneous xenograft tumors at the right flank were intraperitoneally or orally treated with bivalent compounds at indicated dose. Eight hours after drug administration, animals were sacrificed for immunoblotting of TPM3-TPKA in homogenized xenograft tumor samples.
as §2
All animal experiments were performed under protocols approved by the Institutional Animal Care and Use Committee (IACUC) of Cullgen. Athymic nude mice (male, 5-weeks old) received 5 million KM12 cells subcutaneously inoculated at the right flank site. Ten days following inoculation, tumors were approximately 500 mm3 in size. Tumor-bearing mice were treated intraperitoneally with vehicle or bivalent compounds at indicated doses. Tumor sizes and body weight of mice were measured every 2 days. In addition, immunoblotting assays were employed to assess the levels of TRKA fusion proteins in xenograft tumors around 500 mm^3 in size following drug administration. At indicated hours after drug administration, selected mice were sacrificed, tumors were resected. Small chunks of tumors were homogenized for immunoblotting of TPM3-TPKA and other proteins as indicated.

[5] = Mouse pharmacokinetic (PK) studies; format: in vivo; settings: single 20 mg/kg intraperitoneal injection, mice, over 12 hours (FIG. 11); 20 mg/kg
Experimental: To investigate the pharmacokinetics of bi-functional compounds, exemplified by TR-123, a single 20 mg/kg intraperitoneal injection was evaluated. […] Additionally, doses of 2 mg/kg TR-198 via intravenous injection and 20 mg/kg TR-198 via oral gavage were evaluated in mice.
A single 20 mg/kg intraperitoneal injection of compound TR-123 was evaluated. Plasma concentrations of TR-123 reported at each of the 6 time points (30 min, 1 h, 2 h, 4 h, 8 h, and 12 h post compound administration) are the average values from 3 test animals.
A single 2 mg/kg intravenous injection and 20 mg/kg oral gavage of TR-198 were evaluated in mice.
Plasma concentrations of TR-198 reported at each of the 6 time points (5 min, 30 min, 2 h, 4 h, 8 h, and 12 h post compound administration via IV, 30 min, 1 h, 2 h, 4 h, 8 h, and 12 h post compound administration via p.o.) are the average values from 3 test animals.
Standard PK studies were conducted using male Swiss Albino mice by Sai Life Sciences. A single 20 mg/kg intraperitoneal (IP) injection of compound TR-123 was evaluated. Plasma concentrations of TR-123 reported at each of the 6 time points (30 min, 1 h, 2 h, 4 h, 8 h, and 12 h post dosing) are the average values from 3 test animals. Error bars represent+SD.

T1 sequence (P06753+P04629 fused): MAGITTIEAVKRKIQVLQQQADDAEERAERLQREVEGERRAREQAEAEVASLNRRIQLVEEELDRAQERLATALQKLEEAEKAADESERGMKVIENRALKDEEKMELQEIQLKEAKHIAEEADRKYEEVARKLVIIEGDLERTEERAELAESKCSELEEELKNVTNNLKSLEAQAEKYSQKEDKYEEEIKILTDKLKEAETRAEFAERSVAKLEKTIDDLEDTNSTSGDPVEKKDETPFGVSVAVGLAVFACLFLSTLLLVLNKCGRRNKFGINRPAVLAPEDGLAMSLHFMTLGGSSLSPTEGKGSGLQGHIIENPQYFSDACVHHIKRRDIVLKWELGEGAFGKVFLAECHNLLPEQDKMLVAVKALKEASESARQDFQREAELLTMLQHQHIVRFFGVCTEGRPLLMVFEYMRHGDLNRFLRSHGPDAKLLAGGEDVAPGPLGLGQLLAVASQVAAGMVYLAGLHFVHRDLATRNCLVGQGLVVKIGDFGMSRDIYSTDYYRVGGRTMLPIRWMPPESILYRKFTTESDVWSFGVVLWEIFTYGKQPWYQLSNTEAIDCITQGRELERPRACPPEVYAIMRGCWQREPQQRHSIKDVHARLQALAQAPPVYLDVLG
T1 sequence (Q96SW2 whole entry, the tested form may be a part): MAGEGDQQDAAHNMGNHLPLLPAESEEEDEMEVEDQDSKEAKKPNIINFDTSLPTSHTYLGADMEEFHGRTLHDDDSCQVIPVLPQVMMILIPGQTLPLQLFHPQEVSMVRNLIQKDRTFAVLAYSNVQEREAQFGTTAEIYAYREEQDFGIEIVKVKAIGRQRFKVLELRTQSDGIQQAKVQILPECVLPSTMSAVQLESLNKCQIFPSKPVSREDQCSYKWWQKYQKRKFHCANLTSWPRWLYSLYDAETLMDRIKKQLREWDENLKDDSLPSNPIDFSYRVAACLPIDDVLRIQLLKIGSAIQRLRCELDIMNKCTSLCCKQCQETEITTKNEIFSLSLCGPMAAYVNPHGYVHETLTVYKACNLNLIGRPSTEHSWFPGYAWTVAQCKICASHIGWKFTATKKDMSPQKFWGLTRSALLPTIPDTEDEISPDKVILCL
T1 sequence (Q16531 whole entry partner, the tested form may be a part): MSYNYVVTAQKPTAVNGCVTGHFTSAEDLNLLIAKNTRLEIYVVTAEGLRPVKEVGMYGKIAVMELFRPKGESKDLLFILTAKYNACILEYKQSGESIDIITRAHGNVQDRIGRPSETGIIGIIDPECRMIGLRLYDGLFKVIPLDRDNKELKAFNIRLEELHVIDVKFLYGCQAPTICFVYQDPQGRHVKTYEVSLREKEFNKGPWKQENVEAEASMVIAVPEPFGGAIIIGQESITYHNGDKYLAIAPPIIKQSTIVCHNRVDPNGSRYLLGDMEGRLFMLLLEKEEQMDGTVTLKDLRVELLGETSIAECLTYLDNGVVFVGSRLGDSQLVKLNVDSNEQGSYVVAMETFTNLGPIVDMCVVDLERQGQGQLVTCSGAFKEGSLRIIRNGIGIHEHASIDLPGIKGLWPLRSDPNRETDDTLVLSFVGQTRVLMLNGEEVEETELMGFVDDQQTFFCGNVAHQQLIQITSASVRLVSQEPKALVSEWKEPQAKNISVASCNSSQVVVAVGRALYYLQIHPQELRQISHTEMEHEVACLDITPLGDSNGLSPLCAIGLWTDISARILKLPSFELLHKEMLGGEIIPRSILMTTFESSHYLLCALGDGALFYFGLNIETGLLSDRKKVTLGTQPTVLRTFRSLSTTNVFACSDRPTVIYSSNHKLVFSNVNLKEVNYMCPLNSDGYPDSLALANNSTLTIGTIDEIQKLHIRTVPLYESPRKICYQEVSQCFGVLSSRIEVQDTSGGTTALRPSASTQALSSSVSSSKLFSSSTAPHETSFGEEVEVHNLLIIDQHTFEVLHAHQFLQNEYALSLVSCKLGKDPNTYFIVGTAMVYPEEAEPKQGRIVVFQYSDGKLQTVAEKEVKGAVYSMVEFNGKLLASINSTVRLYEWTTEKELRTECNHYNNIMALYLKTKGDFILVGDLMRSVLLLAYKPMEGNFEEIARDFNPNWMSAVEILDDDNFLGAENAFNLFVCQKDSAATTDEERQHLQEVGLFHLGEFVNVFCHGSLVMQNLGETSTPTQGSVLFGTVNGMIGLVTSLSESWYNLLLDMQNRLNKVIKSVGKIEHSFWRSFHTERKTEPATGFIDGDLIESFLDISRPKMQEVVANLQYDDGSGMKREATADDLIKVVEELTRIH
T2 sequence (P04629 33-796): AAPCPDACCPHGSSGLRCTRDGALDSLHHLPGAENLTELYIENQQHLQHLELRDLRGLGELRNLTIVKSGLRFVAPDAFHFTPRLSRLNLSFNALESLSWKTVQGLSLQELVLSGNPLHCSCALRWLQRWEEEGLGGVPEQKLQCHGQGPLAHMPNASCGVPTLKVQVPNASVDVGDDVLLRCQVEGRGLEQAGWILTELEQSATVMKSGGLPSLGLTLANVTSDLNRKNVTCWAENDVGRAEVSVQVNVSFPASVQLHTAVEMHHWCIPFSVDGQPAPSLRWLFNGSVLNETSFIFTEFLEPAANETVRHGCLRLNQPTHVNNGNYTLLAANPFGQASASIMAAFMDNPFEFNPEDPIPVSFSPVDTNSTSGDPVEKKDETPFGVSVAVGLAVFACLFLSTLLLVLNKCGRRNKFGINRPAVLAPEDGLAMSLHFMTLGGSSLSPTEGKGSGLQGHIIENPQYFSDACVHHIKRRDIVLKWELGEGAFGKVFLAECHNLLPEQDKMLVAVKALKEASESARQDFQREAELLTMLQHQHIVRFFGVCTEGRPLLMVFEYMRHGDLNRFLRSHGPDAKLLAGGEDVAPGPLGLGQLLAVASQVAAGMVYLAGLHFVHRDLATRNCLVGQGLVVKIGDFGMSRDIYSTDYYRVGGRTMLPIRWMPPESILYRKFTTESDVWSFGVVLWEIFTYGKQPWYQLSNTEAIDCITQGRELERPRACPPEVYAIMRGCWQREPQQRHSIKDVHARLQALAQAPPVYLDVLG

Compound: CN1C(=O)CCC(N2C(=O)c3ccc(NCC(=O)N4CCN(c5cccc(-c6cnc7ccc(N8CCC[C@@H]8c8cccc(F)c8)nn67)n5)CC4)cc3C2=O)C1=O (stereo partly drawn) [TR-123-negative, 5-((2-(4-(6-(6-((R)-2-(3-Fluorophenyl)pyrrolidin-1-yl)imidazo[1,2-b]pyridazin-3-yl)pyridin-2-yl)piperazin-1-yl)-2-oxoethyl)amino)-2-(1-methyl-2,6-dioxopiperidin-3-yl)isoindoline-1,3-dione]
TRKA protein levels [1]: none or less effects on TRKA protein levels
TRKA protein levels [2]: none or less effects on TRKA protein levels

time after adding compound at which significant degradation of TPM3-TRKA was detected ([1]; 100 nM (FIG. 2)): 15 min
TPM3-TRKA protein levels, time course ([1]; 100 nM, indicated incubation time (FIG. 2)): rapidly reduced TPM3-TRKA protein levels
Compound: O=C1CCC(N2C(=O)c3cccc(NCCOCCC(=O)N4CCN(c5cccc(-c6cnc7ccc(N8CCC[C@@H]8c8cccc(F)c8)nn67)n5)CC4)c3C2=O)C(=O)N1 (stereo partly drawn) [CPD-027, 2-(2,6-Dioxopiperidin-3-yl)-4-((2-(3-(4-(6-(6-((R)-2-(3-fluorophenyl)pyrrolidin-1-yl)imidazo[1,2-b]pyridazin-3-yl)pyridin-2-yl)piperazin-1-yl)-3-oxopropoxy)ethyl)amino)isoindoline-1,3-dione]
IC50 ([3]; Table 2): 4.9 nM
TPM3-TRKA protein levels in KM12 subcutaneous xenograft tumors ([4]; 10, 20, or 50 mg/kg intraperitoneally, single dose, four hours after administration (FIG. 3)): significantly reducing TPM3-TRKA protein levels
TPM3-TRKA protein levels ([1]; 100 nM, 16 hours (FIG. 1A-1C)): particularly effective in reducing TPM3-TRKA protein levels

Compound: O=C1CCC(N2C(=O)c3ccc(OCCN4CCN(c5cccc(-c6cnc7ccc(N8CCC[C@@H]8c8cccc(F)c8)nn67)n5)CC4)cc3C2=O)C(=O)N1 (stereo partly drawn) [TR-173, 2-(2,6-dioxopiperidin-3-yl)-5-(2-(4-(6-(6-((R)-2-(3-fluorophenyl)pyrrolidin-1-yl)imidazo[1,2-b]pyridazin-3-yl)pyridin-2-yl)piperazin-1-yl)ethoxy)isoindoline-1,3-dione]
IC50 ([3]; Table 3): 8.9 nM
TPM3-TRKA degradation in KM12 subcutaneous tumors [4]: exhibited the activities to induce TPM3-TRKA degradation

TRKA degradation in combination with MG-132, Bortezomib or MLN4924 ([1]; single dose (FIG. 9A)): compromised
TRKA degradation in combination with MG-132, Bortezomib, MLN4924 or Pomalidomide ([2]; single dose (FIG. 9B)): compromised
plasma exposure [5]: significant plasma exposure
Compound: O=C1CCC(N2C(=O)c3ccc(NCC(=O)N4CCN(c5cccc(-c6cnc7ccc(N8CCC[C@@H]8c8cccc(F)c8)nn67)n5)CC4)cc3C2=O)C(=O)N1 (stereo partly drawn) [TR-123, 2-(2,6-dioxopiperidin-3-yl)-5-((2-(4-(6-(6-((R)-2-(3-fluorophenyl)pyrrolidin-1-yl)imidazo[1,2-b]pyridazin-3-yl)pyridin-2-yl)piperazin-1-yl)-2-oxoethyl)amino)isoindoline-1,3-dione]
IC50 ([3]; Table 3): 1.7 nM
TPM3-TRKA degradation in KM12 subcutaneous tumors [4]: exhibited the activities to induce TPM3-TRKA degradation
TRKA protein levels [1]: reduced TRKA protein levels in a concentration-dependent manner
TRKA protein levels [2]: reduced TRKA protein levels in a concentration-dependent manner; also recorded: significant degradation of full-length TRKA

Compound: O=C1CCC(N2C(=O)c3ccc(NCCOCCOCCN4CCN(c5cccc(-c6cnc7ccc(N8CCC[C@H]8c8cccc(F)c8)nn67)n5)CC4)cc3C2=O)C(=O)N1 (stereo partly drawn) [TR-177, 2-(2,6-Dioxopiperidin-3-yl)-5-((2-(2-(2-(4-(6-(6-((S)-2-(3-fluorophenyl)pyrrolidin-1-yl)imidazo[1,2-b]pyridazin-3-yl)pyridin-2-yl)piperazin-1-yl)ethoxy)ethoxy)ethyl)amino)isoindoline-1,3-dione]
IC50 ([3]; Table 3): 1.9 nM
TPM3-TRKA degradation in KM12 subcutaneous tumors [4]: exhibited the activities to induce TPM3-TRKA degradation

Compound: O=C1CCC(N2C(=O)c3ccc(NCCCN4CCN(c5cccc(-c6cnc7ccc(N8CCC[C@@H]8c8cccc(F)c8)nn67)n5)CC4)cc3C2=O)C(=O)N1 (stereo partly drawn) [TR-171, 2-(2,6-Dioxopiperidin-3-yl)-5-((3-(4-(6-(6-((R)-2-(3-fluorophenyl)pyrrolidin-1-yl)imidazo[1,2-b]pyridazin-3-yl)pyridin-2-yl)piperazin-1-yl)propyl)amino)isoindoline-1,3-dione]
IC50 ([3]; Table 3): 5.2 nM
TPM3-TRKA degradation in KM12 subcutaneous tumors [4]: exhibited the activities to induce TPM3-TRKA degradation

plasma exposure [5]: good plasma exposure
Compound: O=C1CCC(N2C(=O)c3ccc(NCC(=O)N4CCN(c5cccc(-c6cnc7ccc(N8CCC[C@@H]8c8cccc(F)c8)nn67)n5)CC4)cc3C2=O)C(=O)N1 (stereo partly drawn) [TR123]

Compound: O=C1CCC(N2C(=O)c3ccc(CCCN4CCN(c5cccc(-c6cnc7ccc(N8CCC[C@@H]8c8cccc(F)c8)nn67)n5)CC4)cc3C2=O)C(=O)N1 (stereo partly drawn) [TR-172, 2-(2,6-dioxopiperidin-3-yl)-5-(3-(4-(6-(6-((R)-2-(3-fluorophenyl)pyrrolidin-1-yl)imidazo[1,2-b]pyridazin-3-yl)pyridin-2-yl)piperazin-1-yl)propyl)isoindoline-1,3-dione]
IC50 ([3]; Table 3): 2 nM
TPM3-TRKA degradation in KM12 subcutaneous tumors [4]: exhibited the activities to induce TPM3-TRKA degradation

Compound: O=C1CCC(N2Cc3cc(C#CCN4CCN(c5cccc(-c6cnc7ccc(N8CCC[C@@H]8c8cccc(F)c8)nn67)n5)CC4)ccc3C2=O)C(=O)N1 (stereo partly drawn) [TR-188, 3-(5-(3-(4-(6-(6-((R)-2-(3-Fluorophenyl)pyrrolidin-1-yl)imidazo[1,2-b]pyridazin-3-yl)pyridin-2-yl)piperazin-1-yl)prop-1-yn-1-yl)-1-oxoisoindolin-2-yl)piperidine-2,6-dione]
IC50 ([3]; Table 3): 16.8 nM
